Assay results from paper PMC10763615, “Identification and engineering of potent cyclic peptides with selective or promiscuous binding through biochemical profiling and bioinformatic data analysis” (RSC Chemical Biology, 2023).
Where two headings read alike, the source gives them in different places.

T1: FGFR4/KLB (Fc-fused human FGF-R4 with beta-klotho) (Homo sapiens, UniProt P22455)
T1 sequence (P22455 22-369 limits assumed): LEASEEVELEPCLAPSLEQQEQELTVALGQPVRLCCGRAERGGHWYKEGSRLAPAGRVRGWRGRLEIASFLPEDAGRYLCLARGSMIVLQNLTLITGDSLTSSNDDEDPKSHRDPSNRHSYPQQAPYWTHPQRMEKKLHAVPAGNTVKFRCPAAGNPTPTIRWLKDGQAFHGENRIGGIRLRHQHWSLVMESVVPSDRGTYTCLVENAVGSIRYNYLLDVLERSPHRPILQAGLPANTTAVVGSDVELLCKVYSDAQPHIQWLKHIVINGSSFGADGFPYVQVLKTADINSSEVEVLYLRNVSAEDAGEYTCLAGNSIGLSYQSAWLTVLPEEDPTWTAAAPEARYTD

T2: FGFR3c/BKL (Fc-fused human FGF-R3alpha(IIIc) with beta-klotho) (Homo sapiens, UniProt P22607)
T2 sequence (P22607 23-375 limits assumed): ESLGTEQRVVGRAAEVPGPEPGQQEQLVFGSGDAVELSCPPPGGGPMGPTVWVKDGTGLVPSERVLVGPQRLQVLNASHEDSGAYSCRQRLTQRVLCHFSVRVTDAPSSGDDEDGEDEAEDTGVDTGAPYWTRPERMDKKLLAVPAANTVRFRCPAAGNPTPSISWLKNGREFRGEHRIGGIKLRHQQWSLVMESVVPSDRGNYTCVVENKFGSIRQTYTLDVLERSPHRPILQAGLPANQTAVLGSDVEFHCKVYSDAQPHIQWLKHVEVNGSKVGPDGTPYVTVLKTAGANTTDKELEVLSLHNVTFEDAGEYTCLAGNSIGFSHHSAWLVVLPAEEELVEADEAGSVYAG

T3: FGFR1c/KLB (Fc-fused human FGF-R1alpha(IIIc) with beta-klotho) (Homo sapiens, UniProt P11362)
T3 sequence (P11362 22-376 limits assumed): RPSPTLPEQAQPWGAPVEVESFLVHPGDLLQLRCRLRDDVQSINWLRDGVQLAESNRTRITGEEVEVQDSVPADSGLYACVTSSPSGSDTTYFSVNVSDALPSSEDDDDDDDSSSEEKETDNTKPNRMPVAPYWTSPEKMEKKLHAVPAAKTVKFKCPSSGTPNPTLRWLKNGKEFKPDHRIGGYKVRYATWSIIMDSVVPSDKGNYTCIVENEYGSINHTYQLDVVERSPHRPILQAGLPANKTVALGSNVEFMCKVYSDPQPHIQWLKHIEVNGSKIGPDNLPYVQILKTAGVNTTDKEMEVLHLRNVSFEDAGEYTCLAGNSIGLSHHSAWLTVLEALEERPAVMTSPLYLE

T4: FGF-R1C ECD (Homo sapiens, UniProt P11362)
T4 sequence (P11362 22-376 limits assumed): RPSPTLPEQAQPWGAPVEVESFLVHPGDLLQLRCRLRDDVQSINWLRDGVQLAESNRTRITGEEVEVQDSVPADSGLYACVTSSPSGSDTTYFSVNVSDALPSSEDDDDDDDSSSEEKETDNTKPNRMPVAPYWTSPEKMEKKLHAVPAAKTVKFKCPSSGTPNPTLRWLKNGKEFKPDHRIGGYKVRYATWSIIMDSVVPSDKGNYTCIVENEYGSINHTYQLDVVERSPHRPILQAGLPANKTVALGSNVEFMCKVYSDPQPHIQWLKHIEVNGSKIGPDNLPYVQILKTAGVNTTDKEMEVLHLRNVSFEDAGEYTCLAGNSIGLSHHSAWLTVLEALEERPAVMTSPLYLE

T5: FGF-R3C ECD (Homo sapiens, UniProt P22607)
T5 sequence (P22607 23-375 limits assumed): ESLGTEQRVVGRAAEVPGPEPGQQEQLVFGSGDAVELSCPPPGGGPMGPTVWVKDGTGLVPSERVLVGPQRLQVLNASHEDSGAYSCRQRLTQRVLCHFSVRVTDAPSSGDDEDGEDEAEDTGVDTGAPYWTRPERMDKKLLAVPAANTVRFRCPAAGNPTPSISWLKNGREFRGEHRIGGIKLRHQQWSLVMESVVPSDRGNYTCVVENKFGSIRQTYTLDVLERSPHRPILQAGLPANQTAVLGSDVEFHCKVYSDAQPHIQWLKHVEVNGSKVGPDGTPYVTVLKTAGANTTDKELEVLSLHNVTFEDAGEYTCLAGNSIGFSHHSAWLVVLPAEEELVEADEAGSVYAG

T6: FGF-R4 ECD (Homo sapiens, UniProt P22455)
T6 construct: DNA constructs for the extracellular domain (ECD) of human FGF-; HPC4 (C); made in house; host or cells: HEK 293-6E
T6 sequence (P22455 22-369 limits assumed): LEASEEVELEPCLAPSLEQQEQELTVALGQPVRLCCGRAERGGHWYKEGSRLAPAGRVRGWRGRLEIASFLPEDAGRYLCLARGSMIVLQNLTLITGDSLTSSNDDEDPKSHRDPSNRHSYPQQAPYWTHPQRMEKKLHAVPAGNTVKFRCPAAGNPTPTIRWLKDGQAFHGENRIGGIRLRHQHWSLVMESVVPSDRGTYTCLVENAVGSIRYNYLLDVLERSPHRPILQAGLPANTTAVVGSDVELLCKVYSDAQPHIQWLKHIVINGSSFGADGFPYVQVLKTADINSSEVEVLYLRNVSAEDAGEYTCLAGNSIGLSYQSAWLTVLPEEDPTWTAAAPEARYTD


Tests used:
[1] = biological target: T1, FGFR4/KLB (Fc-fused human FGF-R4 with beta-klotho); experiment: AlphaScreen FGF21 competitive binding assay; settings: read-out: IC50 values for controls (FGF-R4); positive controls, Alphascreen vs biotinylated FGF21
[2] = biological target: T2, FGFR3c/BKL (Fc-fused human FGF-R3alpha(IIIc) with beta-klotho); experiment: AlphaScreen FGF21 competitive binding assay; settings: read-out: IC50 values for controls (FGF-R3C); positive controls, Alphascreen vs biotinylated FGF21
Experimental: Alphascreen binding assay
The competitive binding assay was carried out according to the methods detailed in Hansen. et al using
AlphaScreen.3 All reagents and samples were prepared in assay buffer: 40mM Hepes, 140mM NaCl, 1mM
CaCl2, 0,05% Tween20, pH=7.5, 0.1% BSA. In brief, recombinant human beta-klotho (R&D Systems) was
preincubated for 60 min with the ectodomain, either Fc-fused human FGF-R1alpha(IIIc), FGF-R3alpha(IIIc)
or FGF-R4 (R&D Systems), and the mixture was added to the test peptides in OptiPlate™ (PerkinElmer).
Biotinylated FGF21 and heparin were further added to each well. AlphaScreen bead mix (1:1 mix of Protein
A acceptor beads/ streptavidin-coated donor beads, PerkinElmer) were added to each well incubated
overnight at RT in the dark, and measured on a plate reader (Envision). Assays were carried out in triplicates
with concentrations ranging from 3, 10, 30, 100, 300 ,1000 and 3000 nM of peptide. No peptide control
(media only) was used as a negative control, and unlabeled FGF21 and FGF1 as positive control.
competing with biotinylated natural FGF21 ligand.

[3] = biological target: T3, FGFR1c/KLB (Fc-fused human FGF-R1alpha(IIIc) with beta-klotho); experiment: AlphaScreen FGF21 competitive binding assay; settings: read-out: IC50 values for controls (FGF-R1C); positive controls, Alphascreen vs biotinylated FGF21
FGF-R1C ECD [4] = biological target: T4, FGF-R1C ECD; experiment: biochemical; assay type: binding; design: DNA constructs for the extracellular domain (ECD) of human FGF-; HPC4 (C); made in house; host or cells: HEK 293-6E
In short: (§1)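 Streptavidin biosensors carrying biotinylated FGF receptor ECD were immersed in peptide (~1 μM for crude single-point runs, a concentration series for purified peptides) and then in peptide-free buffer. KD was obtained by fitting the BLI association and dissociation curves.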

FGF-R3C ECD [5] = biological target: T5, FGF-R3C ECD; experiment: biochemical; assay type: binding; design: DNA constructs for the extracellular domain (ECD) of human FGF-; HPC4 (C); made in house; host or cells: HEK 293-6E
In short: as §1

FGF-R4 ECD [6] = biological target: T6, FGF-R4 ECD; experiment: single concentration BLI of crude peptides; assay type: binding; settings: read-out: KD (4)
In short: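 BLI, streptavidin sensors loaded with biotinylated receptor ECD. Single-point: ~1 μM crude peptide, PBS pH7.4/0.05% Tween-20/0.01% BSA; association then dissociation in buffer. KD corrected for UPLC-CAD-determined concentration.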

FGF-R4 ECD [7] = biological target: T6, FGF-R4 ECD; experiment: multi-concentration BLI of purified peptides; assay type: binding
In short: as §1

FGF-R1C ECD [8] = biological target: T4, FGF-R1C ECD; experiment: biochemical
In short: as §1

FGF-R3C ECD [9] = biological target: T5, FGF-R3C ECD; experiment: biochemical
In short: as §1

IC50 [1] | IC50 [2] | IC50 [3] | Molecule | Kd (FGF-R1C ECD [4]) | Kd (FGF-R3C ECD [5]) | Kd (FGF-R4 ECD [6]; crude NNK peptides, single concentration BLI (Table S3)) | Kd (FGF-R4 ECD [7]; purified NNK library peptides) | Kd (FGF-R1C ECD [8]) | Kd (FGF-R3C ECD [9]) | Kd (FGF-R4 ECD [6]; crude T18 selection 1 (1:1:1) peptides, single concentration BLI (Table S4)) | Kd (FGF-R4 ECD [7]; purified trimer-18 library peptides)
7 nM | 3 nM | 4 nM | FGF1: FGF1 used as positive control [reference compound] |  |  |  |  |  |  |  | 
 |  |  | CC[C@H](C)[C@@H]1NC(=O)[C@H](CCCCN)NC(=O)[C@H](Cc2ccc(O)cc2)NC(=O)[C@H]([C@@H](C)CC)NC(=O)[C@H](CO)NC(=O)[C@H](C(C)C)NC(=O)[C@H](CC(C)C)NC(=O)[C@@H](NC(=O)[C@H](CCSC)NC(C)=O)CSSC[C@@H](C(=O)NCC(=O)N[C@@H](CO)C(=O)NCC(=O)N[C@@H](CO)C(=O)N[C@@H](CC(=O)O)C(=O)N[C@@H](Cc2ccc(O)cc2)C(=O)N[C@@H](CCCCN)C(=O)N[C@@H](CC(=O)O)C(=O)N[C@@H](CC(=O)O)C(=O)N[C@@H](CC(=O)O)C(=O)N[C@@H](CC(=O)O)C(=O)N[C@@H](CCCCN)C(N)=O)NC(=O)[C@H]([C@@H](C)O)NC(=O)[C@H](CCCNC(=N)N)NC(=O)[C@H](CCSC)NC1=O [4.1] | > 10000 nM | 6120 nM | 193 nM | > 1000 nM | > 1000 nM | > 1000 nM |  | 
 |  |  | CC[C@H](C)[C@@H]1NC(=O)[C@H](CCCCN)NC(=O)[C@H](CO)NC(=O)[C@H](CC(N)=O)NC(=O)[C@@H]2CCCN2C(=O)[C@@H]2CCCN2C(=O)[C@H](CCCNC(=N)N)NC(=O)[C@H](Cc2c[nH]cn2)NC(=O)[C@H](Cc2ccc(O)cc2)NC(=O)[C@@H](NC(=O)[C@H](CCSC)NC(C)=O)CSSC[C@@H](C(=O)NCC(=O)N[C@@H](CO)C(=O)NCC(=O)N[C@@H](CO)C(=O)N[C@@H](CC(=O)O)C(=O)N[C@@H](Cc2ccc(O)cc2)C(=O)N[C@@H](CCCCN)C(=O)N[C@@H](CC(=O)O)C(=O)N[C@@H](CC(=O)O)C(=O)N[C@@H](CC(=O)O)C(=O)N[C@@H](CC(=O)O)C(=O)N[C@@H](CCCCN)C(N)=O)NC(=O)[C@H](CCCCN)NC(=O)[C@H](CCCNC(=N)N)NC(=O)[C@H](Cc2c[nH]c3ccccc23)NC1=O [4.14] | > 10000 nM | > 10000 nM |  |  | > 1000 nM | > 1000 nM | 214 nM | 524 nM
674 nM | 20 nM | 23 nM | FGF21: unlabelled FGF21, natural ligand used as positive control (protein, UniProt Q9NSA1 29-209, looked up) Fibroblast growth factor 21: HPIPDSSPLLQFGGQVRQRYLYTDDAQQTEAHLEIREDGTVGGAADQSPESLLQLKALKPGVIQILGVKTSRFLCQRPDGALYGSLHFDPEACSFRELLLEDGYNVYQSEAHGLPLHLPGNKSPHRDPAPRGPARFLPLPGLPPALPEPPGILAPQPPDVGSSDPLSMVGPSQGRSPSYAS |  |  |  |  |  |  |  | 
